{
  "source": "paper PMC6264335",
  "about": "“Synthesis of Quinolin-2-one Alkaloid Derivatives and Their Inhibitory Activities against HIV-1 Reverse Transcriptase” (Molecules, 2011)",
  "note": "“And” between values parts separate entries of the source, which are not always exact repeats. Equal values may be shown once.",
  "data": [
    {"target": "HIV-1 reverse transcriptase (RT)", "assay": "not given", "set-up": "method as in PMID 8778237", "conditions": "cited from earlier work", "units": {"IC50": "µM"}, "values": [
      {"compound": "CC(C)=CCOc1c(CC=C(C)C)c(=O)[nH]c2ccccc12", "note": "[Compound 3]", "IC50": 8}
    ]},
    {"target": "recombinant HIV-1 RT (Human immunodeficiency virus type 1 group M subtype B, UniProt P04585)", "assay": "HIV-1 RT inhibitory assay (ELISA RT kit, Roche)", "conditions": "IC50 (effective concentration that inhibits 50% of HIV-1 RT), mean of two independent experiments", "protocol": "HIV-1 reverse transcriptase (RT) activity was measured using a commercially available ELISA RT kit (Roche) according to the instructions of the manufacturer. The compounds were incubated with DIG-labeled reaction mixture at 37 °C for 2 h, then anti-DIG-POD solution was added, followed by substrate ABTS.", "values": [
      {"compound": "O=c1cc(Sc2ccccc2)c2cc(Cl)ccc2[nH]1", "note": "[Compound 4a1, 6-Chloro-4-(phenylthio)quinolin-2(1H)-one]", "IC50": "5.6 µM"},
      {"compound": "Cc1cc(C)cc(Sc2cc(=O)[nH]c3ccc(Cl)cc23)c1", "note": "[Compound 4a2, 6-Chloro-4-(3,5-dimethylphenylthio)quinolin-2(1H)-one]", "IC50": "0.21 µM"},
      {"compound": "Cc1cc(C)cc(Sc2cc(=O)[nH]c3ccccc23)c1", "note": "[Compound 4a3, 4-(3,5-dimethylphenylthio)quinolin-2(1H)-one]", "IC50": "13 µM and 18 µM"},
      {"compound": "O=c1cc([S+]([O-])c2ccccc2)c2cc(Cl)ccc2[nH]1", "note": "(stereo not shown) [Compound 4b1, 6-Chloro-4-(phenylsulfinyl)quinolin-2(1H)-one]", "IC50": "8.9 µM"},
      {"compound": "Cc1cc(C)cc([S+]([O-])c2cc(=O)[nH]c3ccc(Cl)cc23)c1", "note": "(stereo not shown) [Compound 4b2, 6-Chloro-4-(3,5-dimethylphenylsulfinyl)quinolin-2(1H)-one]", "IC50": "2.6 µM"},
      {"compound": "O=c1cc(S(=O)(=O)c2ccccc2)c2cc(Cl)ccc2[nH]1", "note": "[Compound 4c1, 6-Chloro-4-(phenylsulfonyl)quinolin-2(1H)-one]", "IC50": "49 µM"},
      {"compound": "Cc1cc(C)cc(S(=O)(=O)c2cc(=O)[nH]c3ccc(Cl)cc23)c1", "note": "[Compound 4c2, 6-Chloro-4-(3,5-dimethylphenylsulfonyl)quinolin-2(1H)-one]", "IC50": "10 µM"},
      {"compound": "O=c1cc(Oc2ccccc2)c2cc(Cl)ccc2[nH]1", "note": "[Compound 4d1, 6-Chloro-4-phenoxyquinolin-2(1H)-one]", "IC50": "3 µM"},
      {"compound": "Cc1cc(C)cc(Oc2cc(=O)[nH]c3ccc(Cl)cc23)c1", "note": "[Compound 4d2, 6-Chloro-4-(3,5-dimethylphenoxy)quinolin-2(1H)-one]", "IC50": "0.15 µM"},
      {"compound": "O=c1cc(-c2ccccc2)c2cc(Cl)ccc2[nH]1", "note": "[Compound 5a, 6-Chloro-4-phenylquinolin-2(1H)-one]", "IC50": "> 100 µM"},
      {"compound": "O=c1cc(-c2ccccc2F)c2cc(Cl)ccc2[nH]1", "note": "[Compound 5b, 6-Chloro-4-(2-fluorophenyl)quinolin-2(1H)-one]", "IC50": "> 100 µM"},
      {"compound": "O=c1cc(-c2ccccc2Cl)c2cc(Cl)ccc2[nH]1", "note": "[Compound 5c, 6-Chloro-4-(2-chlorophenyl)quinolin-2(1H)-one]", "IC50": "> 100 µM"}
    ]}
  ]
}
